Columns and labels:
RET1 [1] = target: T1, RET1 (Trypanosoma brucei brucei, UniProt Q8WQX5, A749G/DEL18-18/G858D/N24H/V111I/W59S); assay: Gel based assay for RET1 uridylylation activity (Sybr Gold); type: biochemical; settings: for Inhibition of RET1 uridylation of RNA, gel verification: inhibitor 50 µM, Fig. 3; for Gel Assay (qualitative activity in gel based assay): qualitative class: inactive, moderate or strong inhibitor, inhibitor 50 µM per method
T1 construct: Full-length RET1 protein (975aa) was expressed in E. coli as an N-terminal GST-tagged fusion protein; made in house; host or cells: E. coli BL21 (DE3)
Description: Individual reactions were made up in 0.2 ml PCR tubes (Peqlab 820264-A). RET1 enzyme (see SI text) was added (0.05 μl, 0.2 mg ml^−1), UTP (Thermo Scientific R0471 100 mM) was added to a final concentration of 50 μM. RNA substrate (see SI text) was added to a final concentration of 200 nM. Inhibitors were added as required (0.5 μl in DMSO) to a final concentration of 50 μM. When no inhibitor was included 5 % (vol/vol) DMSO was added as control. The volume was made up to 10 μl in buffer D (Tris pH 7.5 10 mM, KCl 200 mM, DTT 1 mM, EDTA 0.5 mM MgCl2 3.2 mM) and the reaction was incubated for 20 mins at 27°C, then inactivated at 65°C for 10 mins. RNA loading dye (10 μl, NEB B363A) was added and tubes were heated (5 mins at 70°C), 10 μl was loaded onto 15 % TBE urea pre-cast gel (Invitrogen EC68852) and run in 1 x TBE buffer for 1.5 h at 130 V. Gels were incubated with Sybr Gold nucleic acid stain (Life Technologies S11494) for 20 mins, then imaged on an ultraviolet trans-illuminator (BioDoc-It imaging system, UVP). Experiments were carried out in duplicate for each inhibitor.

T. brucei = assay: Treating T. brucei cultures with compounds, cell density counts; type: cell-based, Trypanosoma brucei; settings: blood and insect forms; concentrations close to RET1 IC50 values (70μM and 2μM); Fig. S4
Description: Wild type blood form strain of trypanosomes were cultured to densities of 5 × 10^5 cells ml^−1 at 37 °C in HMI-9 medium, 1 % pen/strep, 10 % FCS, Puromycin 0.1 ug ml^−1 , zeocin 1 µg ml^−1. Test compounds in DMSO were added at varying concentrations (DMSO final concentration 1 %). The trypanosomes where then split 1/10 dilution and sub-cultured every 24 h to the same cell density (5 × 10^5 cells ml^−1). At 24 hour intervals, cell density measurements were performed using a hem cytometer. Test concentrations were determined by an initial dose finding experiment and compounds were tested at 0.2, 0.5 and 1 times a fatal dose. This was in the region of the IC50 for both compounds.

RET1 [2] = target: T1, RET1; assay: Luciferase coupled PPi assay, 384 well format, RET1; type: biochemical
Description: Reactions were made up in Corning® 384 Well Low Flange White Flat Bottom Polystyrene TC-Treated Micro plates (Product #3570). RET1 enzyme was added at 0.1 μl (0.2 mgml^−1), UTP (Thermo Scientific R0471 100 mM) and RNA substrate final concentrations were equal to their Km: 50 μM and 20 nM respectively.[18] The volume was made up to 10 μl with buffer 6 (Tris pH 7.5 10 mM, KCl 10 mM, DTT 1 mM, MgCl2 3.2 mM) and the reaction was incubated 20 mins at 25°C, then heat inactivated at 65°C for 10 mins. Test compounds were added in 0.5 μl of DMSO stock solution. The positive control included of 0.5 μl of DMSO. After a 10 min cooling period, 5 μl of each of detection and conversion reagents from PPiLight™ Inorganic Pyrophosphate Assay Kit (Lonza, LT07-610) were added. Luminescence was read with a Pherastar Plus micro plate reader. IC50 determinations were carried out in triplicate using the luciferase assay protocol in a dilution series of 1 mM to 99 nM.

CID1 poly (U) polymerase [3] = target: T2, CID1 poly (U) polymerase (Schizosaccharomyces pombe, UniProt O13833); assay: biochemical
T2 construct: purchased NEB M0337S
Description: (§1) Poly (U) polymerase from Schizosaccharomyces pombe, was obtained from NEB (M0337S). […]
(§2) Duplicate reactions were set up with each containing, 0.2 units of Cid1 enzyme, NEB (M0337S) with UTP at final concentration of 18 µM, RNA 3 nM, and buffer 6 up to a final volume of 10 µl. The reaction was done at 37°C for 20 mins, then the enzyme heat inactivated at 65 °C for 10 mins.

CID1 poly (U) polymerase [4] = assay: biochemical; design: species or system Schizosaccharomyces pombe; settings: RET1 over CID1, calculated from IC50 values
Description: as §1, §2

PC12 cells = test system: PC12 cells; design: method as in PMID 9256496; settings: concentrations of 10 μM; cited from earlier work
[5] = RET1 IC50, PPi assay 384-well follow-up, UTP 50 µM, RNA 20 nM
[6] = RET1 Inhibition IC50, selectivity experiment, Table 2

Structure (SMILES) | Inhibition of RET1 uridylation of RNA, gel verification (RET1 [1]) | Gel Assay (qualitative activity in gel based assay) (RET1 [1]) | Toxicity to trypanosomes in culture (T. brucei) | IC50 (RET1 [2]; [5]) [µM] | IC50 (RET1 [2]; [6]) [µM] | IC50 (CID1 poly (U) polymerase [3]) [µM] | RET1 Selectivity (fold) (CID1 poly (U) polymerase [4]) | Toxicity to PC12 cells (PC12 cells)
O=C(Nc1ccc(S(=O)(=O)N2CCOCC2)cc1)c1cc(Cl)ccc1NS(=O)(=O)c1ccc(Cl)s1 [Compound 1, Ataciguat] | effectively inhibit | Strong | toxic to both blood and insect forms | 70 | 73 | 4800 | 66 | –
O=C(c1cc(O)c(O)c(O)c1)c1ccc(O)c(O)c1O [Compound 2, exifone] | effectively inhibit | Strong | toxic to both blood and insect forms | 2 | 2 | 88 | 43 | not toxic
